Tests used:
human FXR (NR1H4) = biological target: T1, human FXR (NR1H4) (Homo sapiens, UniProt Q96RI1); test: Human FXR (NR1H4) agonist assessment, FXRE-NanoLuc reporter in HEK293T cells; type: cell-based; details: FXR activation, HEK293T FXRE-NanoLuc reporter, 24 hr; for EC50: read-out: EC50
T1 sequence (Q96RI1 1-476 isoform Q96RI1-1): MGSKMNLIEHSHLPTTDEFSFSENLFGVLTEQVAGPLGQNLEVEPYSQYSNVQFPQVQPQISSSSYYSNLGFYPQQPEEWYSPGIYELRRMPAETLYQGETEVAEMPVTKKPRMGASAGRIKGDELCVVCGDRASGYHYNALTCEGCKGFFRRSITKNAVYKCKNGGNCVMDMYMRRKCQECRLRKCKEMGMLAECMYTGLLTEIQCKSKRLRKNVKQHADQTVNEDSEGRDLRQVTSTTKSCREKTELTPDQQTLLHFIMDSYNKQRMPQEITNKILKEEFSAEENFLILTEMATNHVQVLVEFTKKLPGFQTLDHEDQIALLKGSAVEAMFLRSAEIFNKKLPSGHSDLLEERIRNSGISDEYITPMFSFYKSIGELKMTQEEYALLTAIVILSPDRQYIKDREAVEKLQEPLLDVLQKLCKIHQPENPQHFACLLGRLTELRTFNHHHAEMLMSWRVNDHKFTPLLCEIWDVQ
Method in brief: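 HEK293T cells stably expressing human FXR with an FXRE-NanoLuc reporter were treated with compounds for 24 hr at 37 °C, with 0.01% DMSO as negative control. Medium was read for luminescence after 5 min with coelenterazine. EC50 was fitted by sigmoid to concentration-response data.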

MRGPRX4 = MRGPRX4 (Homo sapiens, UniProt Q96LA9); test: MRGPRX4 activation, Fluo-8 Ca2+ FLIPR assay in HEK293T cells stably expressing MRGPRX4; type: cell-based; design: key to MRGPRX4 activation, Average / MRGPRX4 activation, Ave.: fluorescence change dF/F0; details: for EC50: MRGPRX4 activation, Ca2+ fluorescence, no activation in tested range reported as III, read-out: Activity (EC50 μM)
Method in brief: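 Cells seeded overnight to >95% confluence, loaded 40-60 min at room temperature with 2 μM Fluo-8 AM, then kept in HHBS. Baseline read 30 s, compound added, signal followed 150 s more.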

MRGPRX4, sequence (Q96LA9 whole entry): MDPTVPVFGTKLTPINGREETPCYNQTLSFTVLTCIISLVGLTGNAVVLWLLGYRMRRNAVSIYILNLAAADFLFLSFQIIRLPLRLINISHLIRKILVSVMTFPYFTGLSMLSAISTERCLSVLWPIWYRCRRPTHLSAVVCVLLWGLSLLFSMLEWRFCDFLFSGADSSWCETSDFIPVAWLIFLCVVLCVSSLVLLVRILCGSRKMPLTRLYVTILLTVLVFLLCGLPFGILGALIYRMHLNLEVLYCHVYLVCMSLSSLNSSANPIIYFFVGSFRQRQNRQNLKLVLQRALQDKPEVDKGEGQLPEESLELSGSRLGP

Structure (SMILES)	Efficacy (maximum measured induction of NanoLuc, normalized to CDCA set as 100%) (human FXR (NR1H4))	EC50 (human FXR (NR1H4)) [µM]	MRGPRX4 activation, fluorescence change (dF/F0), Average (MRGPRX4; Conc. (Log[M]) −4)	MRGPRX4 activation, fluorescence change (dF/F0), Average (MRGPRX4; Conc. (Log[M]) −4.5)	MRGPRX4 activation, fluorescence change (dF/F0), Average (MRGPRX4; Conc. (Log[M]) −5)	MRGPRX4 activation, fluorescence change (dF/F0), Average (MRGPRX4; Conc. (Log[M]) −5.5)	MRGPRX4 activation, fluorescence change (dF/F0), Average (MRGPRX4; Conc. (Log[M]) −6)	MRGPRX4 activation, fluorescence change (dF/F0), Average (MRGPRX4; Conc. (Log[M]) −7)	EC50 (MRGPRX4) [µM]	MRGPRX4 activation, Average (MRGPRX4; E3-9, Conc. (Log[M]) −4.0)	MRGPRX4 activation, Average (MRGPRX4; E3-9, Conc. (Log[M]) −4.5)	MRGPRX4 activation, Average (MRGPRX4; E3-9, Conc. (Log[M]) −5.0)	MRGPRX4 activation, Average (MRGPRX4; E3-9, Conc. (Log[M]) −5.4)	MRGPRX4 activation, Average (MRGPRX4; E3-9, Conc. (Log[M]) −5.9)	further results
CC[C@H]1[C@@H](O)[C@@H]2[C@H](CC[C@]3(C)[C@@H]([C@H](C)CCNC(=O)NS(=O)(=O)c4ccc(C)cc4)CC[C@@H]23)[C@@]2(C)CCCC[C@@H]12 [5-8]	C (100%<efficacy <=300%)	< 1	0.073	0.037	0.023	0.017	0.020	0.023	> 100	–	–	–	–	–	–
CC[C@H]1[C@@H](O)[C@@H]2[C@H](CC[C@]3(C)[C@@H]([C@H](C)CCNC(=O)NS(=O)(=O)c4cc(F)cc(F)c4)CC[C@@H]23)[C@@]2(C)CCCC[C@@H]12 [5-24]	B (300%<efficacy <=400%)	< 1	–	0.012	–	–	–	–	–	–	–	–	–	–	MRGPRX4 activation, fluorescence change (dF/F0), Average (MRGPRX4; Conc. (Log[M]) −4.0): 0.021; MRGPRX4 activation, fluorescence change (dF/F0), Average (MRGPRX4; Conc. (Log[M]) −5.0): 0.021; MRGPRX4 activation, fluorescence change (dF/F0), Average (MRGPRX4; Conc. (Log[M]) −5.4): 0.019; MRGPRX4 activation, fluorescence change (dF/F0), Average (MRGPRX4; Conc. (Log[M]) −5.9): 0.011; MRGPRX4 activation, fluorescence change (dF/F0), Average (MRGPRX4; Conc. (Log[M]) −6.4): 0.013; MRGPRX4 activation, fluorescence change (dF/F0), Average (MRGPRX4; Conc. (Log[M]) −6.9): 0.013; MRGPRX4 activation, fluorescence change (dF/F0), Average (MRGPRX4; Conc. (Log[M]) −7.3): 0.013; MRGPRX4 activation, fluorescence change (dF/F0), Average (MRGPRX4; Conc. (Log[M]) −7.8): 0.008; MRGPRX4 activation, fluorescence change (dF/F0), Average (MRGPRX4; Conc. (Log[M]) −8.3): 0.011
CC[C@H]1[C@@H](O)[C@@H]2[C@H](CC[C@]3(C)[C@@H]([C@H](C)CNC(=O)NS(=O)(=O)c4ccc(C(C)(C)CF)cc4)CC[C@@H]23)[C@@]2(C)CCCC[C@@H]12 [20-1]	A (efficacy >400%)	< 1	–	–	–	–	–	–	> 100	0.018	0.016	0.019	0.019	0.021	–
CC[C@H]1[C@@H](O)[C@@H]2[C@H](CC[C@]3(C)[C@@H]([C@H](C)CCNC(=O)NS(=O)(=O)c4ccc(C(C)(C)CO)cc4)CC[C@@H]23)[C@@]2(C)CCCC[C@@H]12 [5-2]	A (efficacy >400%)	< 1	0.087	0.030	0.023	0.027	0.023	0.020	> 100	–	–	–	–	–	–
CC[C@H]1[C@@H](OC(=O)c2cccc(I)c2)[C@H]2[C@@H]3[C@@H](O)C=C([C@H](C)CCC(=O)OC)[C@@]3(C)CC[C@@H]2[C@@]2(C)CCCC[C@@H]12 [3-3]	C (100%<efficacy <=300%)	> 10	0.041	0.052	−0.045	−0.013	−0.015	−0.015	> 100	–	–	–	–	–	MRGPRX4 activation, fluorescence change (dF/F0), Average (MRGPRX4; Conc. (Log[M]) −8): −0.031; MRGPRX4 activation, fluorescence change (dF/F0), Average (MRGPRX4; Conc. (Log[M]) −9): −0.014
CC[C@H]1[C@@H](O)[C@@H]2[C@H](CC[C@]3(C)[C@@H]([C@H](C)CCNC(=O)NS(=O)(=O)c4ccc(C(C)(C)CF)cc4)CC[C@@H]23)[C@@]2(C)CCC(F)(F)C[C@@H]12 [10-1]	B (300%<efficacy <=400%)	< 1	–	–	–	–	–	–	> 100	0.025	0.016	0.021	0.018	0.019	MRGPRX4 activation, Average (MRGPRX4; E3-9, Conc. (Log[M]) −6.4): 0.016; MRGPRX4 activation, Average (MRGPRX4; E3-9, Conc. (Log[M]) −6.9): 0.018; MRGPRX4 activation, Average (MRGPRX4; E3-9, Conc. (Log[M]) −7.3): 0.016; MRGPRX4 activation, Average (MRGPRX4; E3-9, Conc. (Log[M]) −7.8): 0.008; MRGPRX4 activation, Average (MRGPRX4; E3-9, Conc. (Log[M]) −8.3): 0.010
CC[C@H]1[C@@H](O)[C@@H]2[C@H](CC[C@]3(C)[C@@H]([C@H](C)COC(=O)NS(=O)(=O)c4ccc(C(C)(C)CF)cc4)CC[C@@H]23)[C@@]2(C)CCCC[C@@H]12 [18-1]	A (efficacy >400%)	< 1	–	–	–	–	–	–	> 100	0.168	0.003	0.008	0.019	0.018	Activation (%) (MRGPRX4; second E3-8-1, 4.6 nM, n = 1): 3.17%; Activation (%) (MRGPRX4; second E3-8-1, 4.6 nM, n = 2): 2.86%; Activation (%) (MRGPRX4; second E3-8-1, 14 nM, n = 1): 2.86%; Activation (%) (MRGPRX4; second E3-8-1, 14 nM, n = 2): 3.17%; Activation (%) (MRGPRX4; second E3-8-1, 41 nM, n = 1): 2.55%; Activation (%) (MRGPRX4; second E3-8-1, 41 nM, n = 2): 3.48%; Activation (%) (MRGPRX4; second E3-8-1, 123 nM, n = 1): 2.55%; Activation (%) (MRGPRX4; second E3-8-1, 123 nM, n = 2): 3.17%; Activation (%) (MRGPRX4; second E3-8-1, 370 nM, n = 1): 3.17%; Activation (%) (MRGPRX4; second E3-8-1, 370 nM, n = 2): 3.48%; Activation (%) (MRGPRX4; second E3-8-1, 1111 nM, n = 1): 2.86%; Activation (%) (MRGPRX4; second E3-8-1, 1111 nM, n = 2): 2.86%; Activation (%) (MRGPRX4; second E3-8-1, 3333 nM, n = 1): 1.93%; Activation (%) (MRGPRX4; second E3-8-1, 3333 nM, n = 2): 2.55%; Activation (%) (MRGPRX4; second E3-8-1, 10000 nM, n = 1): 2.86%; Activation (%) (MRGPRX4; second E3-8-1, 10000 nM, n = 2): 3.79%; Activation (%) (MRGPRX4; second E3-8-1, 30000 nM, n = 1): 2.24%; Activation (%) (MRGPRX4; second E3-8-1, 30000 nM, n = 2): 2.24%
CC[C@H]1[C@@H](O)[C@@H]2[C@H](CC[C@]3(C)[C@@H]([C@H](C)CCC(=O)NS(=O)(=O)C(C)(C)C)CC[C@@H]23)[C@@]2(C)CCCC[C@@H]12 [4-1]	B (300%<efficacy <=400%)	< 1	0.057	0.035	−0.037	−0.013	0.002	0.009	> 100	–	–	–	–	–	MRGPRX4 activation, fluorescence change (dF/F0), Average (MRGPRX4; Conc. (Log[M]) −8): 0.004; MRGPRX4 activation, fluorescence change (dF/F0), Average (MRGPRX4; Conc. (Log[M]) −9): 0.005
CC[C@H]1[C@@H](O)[C@@H]2[C@H](CC[C@]3(C)[C@@H]([C@H](C)COC(=O)NS(=O)(=O)c4ccc(N5CCCCC5)nc4)CC[C@@H]23)[C@@]2(C)CCCC[C@@H]12 [18-3]	A (efficacy >400%)	< 1	–	–	–	–	–	–	> 100	0.519	0.027	0.021	0.018	0.018	Activation (%) (MRGPRX4; second E3-8-1, 4.6 nM, n = 1): 3.17%; Activation (%) (MRGPRX4; second E3-8-1, 4.6 nM, n = 2): 2.86%; Activation (%) (MRGPRX4; second E3-8-1, 14 nM, n = 1): 2.86%; Activation (%) (MRGPRX4; second E3-8-1, 14 nM, n = 2): 2.55%; Activation (%) (MRGPRX4; second E3-8-1, 41 nM, n = 1): 2.86%; Activation (%) (MRGPRX4; second E3-8-1, 41 nM, n = 2): 2.55%; Activation (%) (MRGPRX4; second E3-8-1, 123 nM, n = 1): 2.86%; Activation (%) (MRGPRX4; second E3-8-1, 123 nM, n = 2): 2.86%; Activation (%) (MRGPRX4; second E3-8-1, 370 nM, n = 1): 2.24%; Activation (%) (MRGPRX4; second E3-8-1, 370 nM, n = 2): 3.48%; Activation (%) (MRGPRX4; second E3-8-1, 1111 nM, n = 1): 2.55%; Activation (%) (MRGPRX4; second E3-8-1, 1111 nM, n = 2): 2.24%; Activation (%) (MRGPRX4; second E3-8-1, 3333 nM, n = 1): 3.17%; Activation (%) (MRGPRX4; second E3-8-1, 3333 nM, n = 2): 2.24%; Activation (%) (MRGPRX4; second E3-8-1, 10000 nM, n = 1): 2.24%; Activation (%) (MRGPRX4; second E3-8-1, 10000 nM, n = 2): 2.86%; Activation (%) (MRGPRX4; second E3-8-1, 30000 nM, n = 1): 1.63%; Activation (%) (MRGPRX4; second E3-8-1, 30000 nM, n = 2): 0.08%

— patent US20260116910A1, “POLYCYCLIC COMPOUNDS AND METHODS THEREOF” (HEPAITECH (BEIJING) BIOPHARMA TECHNOLOGY CO., LTD., priority 2021, published 2026)
